Values quoted from earlier work as cited in patent publication US20080268034A1, “Solid Oral Dosage Forms of Ziprasidone Containing Colloidal Silicone Dioxide” (priority 2005, published 2008).

solubility: very poor solubility
SMILES: O=C1Cc2cc(CCN3CCN(c4nsc5ccccc45)CC3)c(Cl)cc2N1 [Ziprasidone free base, 5-[2-[4-(1,2-benzisothiazol-3-yl)-1-piperazinyl]ethyl]-6-chloro-1,3-dihydro-2H-indol-2-one]
